In brackets after ≈: the same amount, converted by molar mass.
Assays:
Format in all cases: functional
Mycobacterium leprae [1] = assay: Anti-leprotic activity against Mycobacterium leprae infected in BALB/c weanling mouse assessed as bacteria killing at 20 mg/kg, ip administrated for 60 days and measured after 1 year by most probable number technique analysis relative to control
Mycobacterium leprae [2] = assay: Anti-leprotic activity against Mycobacterium leprae infected in BALB/c weanling mouse assessed as bacteria killing at 20 mg/kg, ip administrated for 60 days and measured after 1 year by Spearman-Karber technique analysis relative to control
[3] = system: Mycolicibacterium smegmatis; assay: Antimycobacterial activity against DDS sensitive Mycobacterium smegmatis ATCC 607 […]
[4] = system: Mycolicibacterium smegmatis; assay: Antimycobacterial activity against DDS resistant Mycobacterium smegmatis ATCC 607 […]
Mycobacterium leprae [5] = assay: Anti-leprotic activity against Mycobacterium leprae infected in BALB/c mouse assessed as time delay in bacterial multiplication in footpad at 0.01 g/100g of diet administered via feed starting 60 or 75 day post infection up to 90 days by Shepard's kinetic method
Mycobacterium leprae [6] = assay: Anti-leprotic activity against rifampicin-susceptible Mycobacterium leprae subcultures at 4 weeks assessed as [3H]thymidine uptake per 5 times 10^7 cells at 0.2 mg/L incubated for 24 hrs (reference value: 1.41 +/- 0.20 pmol)
Mycobacterium leprae [7] = assay: Anti-leprotic activity against rifampicin-susceptible Mycobacterium leprae primary cultures at 4 weeks assessed as [3H]thymidine uptake per 5 times 10^7 cells at 0.4 mg/L incubated for 24 hrs (reference value: 1.05 +/- 0.16 pmol)
Mycobacterium leprae [8] = assay: Anti-leprotic activity against rifampicin-susceptible Mycobacterium leprae primary cultures at 4 weeks assessed as [3H]thymidine uptake per 5 times 10^7 cells at 0.3 mg/L incubated for 24 hrs (reference value: 1.05 +/- 0.16 pmol)
Mycobacterium leprae [9] = assay: Anti-leprotic activity against rifampicin-susceptible Mycobacterium leprae primary cultures at 4 weeks assessed as [3H]thymidine uptake per 5 times 10^7 cells at 0.2 mg/L incubated for 24 hrs (reference value: 1.05 +/- 0.16 pmol)
Mycobacterium leprae [10] = assay: Anti-leprotic activity against rifampicin-susceptible Mycobacterium leprae subcultures at 4 weeks assessed as [3H]thymidine uptake per 5 times 10^7 cells at 0.4 mg/L incubated for 24 hrs (reference value: 1.41 +/- 0.20 pmol)
Mycobacterium leprae [11] = assay: (§1) Inhibition of PGL1 synthesis in Mycobacterium leprae infected Swiss Webster mouse macrophages assessed as decrease in [U-14C]PA incorporation at 2 uM preincubated for 4 days post infection followed by [U-14C]PA addition and measured after 7 days by liquid scintillation counter analysis relative to control
Mycobacterium leprae [12] = assay: Anti-leprotic activity against rifampicin-susceptible Mycobacterium leprae primary cultures at 4 weeks assessed as ATP level per 10^7 cells at 0.4 mg/L measured by bioluminescence assay (reference value: 332 +/- 46 pg)
[13] = system: Mycobacterium tuberculosis; assay: Antimycobacterial activity against Mycobacterium tuberculosis H37Rv by BACTEC radiometric growth assay
Mycobacterium leprae [14] = assay: Anti-leprotic activity against rifampicin-susceptible Mycobacterium leprae subcultures at 4 weeks assessed as ATP level per 10^7 cells at 0.4 mg/L measured by bioluminescence assay (reference value: 425 +/- 64 pg)
Mycobacterium leprae [15] = assay: Anti-leprotic activity against rifampicin-susceptible Mycobacterium leprae subcultures at 4 weeks assessed as ATP level per 10^7 cells at 0.3 mg/L measured by bioluminescence assay (reference value: 425 +/- 64 pg)
Mycobacterium leprae [16] = assay: Anti-leprotic activity against rifampicin-susceptible Mycobacterium leprae primary cultures at 4 weeks assessed as ATP level per 10^7 cells at 0.3 mg/L measured by bioluminescence assay (reference value: 332 +/- 46 pg)
[17] = system: Mycobacterium tuberculosis; assay: Antitubercular activity against Mycobacterium tuberculosis H37Rv ATCC 27294 incubated for 7 days by microplate alamar blue assay; conditions: H37Rv ATCC 27294, 168 h
Mycobacterium leprae [18] = assay: Anti-leprotic activity against rifampicin-susceptible Mycobacterium leprae subcultures at 4 weeks assessed as [3H]thymidine uptake per 5 times 10^7 cells at 0.3 mg/L incubated for 24 hrs (reference value: 1.41 +/- 0.20 pmol)
[19] = system: Mycolicibacterium smegmatis; assay: Antimicrobial activity against Mycobacterium smegmatis incubated for 30 to 32 hrs under shaking condition relative to control
[20] = system: Mycolicibacterium smegmatis; assay: Antimicrobial activity against Mycobacterium smegmatis incubated for 30 to 32 hrs under shaking condition
Mycobacterium leprae [21] = assay: as §1, with “20” for “2”
Mycobacterium leprae [22] = assay: Anti-leprotic activity against Mycobacterium leprae infected in CBA mouse assessed as number of Mycobacterium leprae in paw pads at 30 mg/kg administrated 5 times a week and measured 7.5 months post infection (reference value: 3.91 +/- 0.33 10^5)
Mycobacterium leprae [23] = assay: Anti-leprotic activity against Mycobacterium leprae infected in CBA mouse assessed as number of Mycobacterium leprae in paw pads at 10 mg/kg administrated 5 times a week and measured 7.5 months post infection (reference value: 3.91 +/- 0.33 10^5)
Mycobacterium leprae [24] = assay: as §1, with “0.2” for “2”
Escherichia coli = assay: Antimicrobial activity against Escherichia coli assessed as zone of inhibition incubated for 20 hrs by agar well diffusion assay
Staphylococcus aureus = assay: Antimicrobial activity against Staphylococcus aureus assessed as zone of inhibition incubated for 20 hrs by agar well diffusion assay
Mycobacterium leprae [25] = assay: Anti-leprotic activity against rifampicin-susceptible Mycobacterium leprae subcultures at 4 weeks assessed as ATP level per 10^7 cells at 0.1 mg/L measured by bioluminescence assay (reference value: 425 +/- 64 pg)
Mycobacterium leprae [26] = assay: Anti-leprotic activity against rifampicin-susceptible Mycobacterium leprae primary cultures at 4 weeks assessed as ATP level per 10^7 cells at 0.2 mg/L measured by bioluminescence assay (reference value: 332 +/- 46 pg)
Mycobacterium leprae [27] = assay: Anti-leprotic activity against rifampicin-susceptible Mycobacterium leprae subcultures at 4 weeks assessed as ATP level per 10^7 cells at 0.2 mg/L measured by bioluminescence assay (reference value: 425 +/- 64 pg)
Mycobacterium leprae [28] = assay: Anti-leprotic activity against rifampicin-susceptible Mycobacterium leprae primary cultures at 4 weeks assessed as ATP level per 10^7 cells at 0.1 mg/L measured by bioluminescence assay (reference value: 332 +/- 46 pg)
Mycobacterium leprae [29] = assay: Anti-leprotic activity against rifampicin-susceptible Mycobacterium leprae primary cultures at 4 weeks assessed as [3H]thymidine uptake per 5 times 10^7 cells at 0.1 mg/L incubated for 24 hrs (reference value: 1.05 +/- 0.16 pmol)
Mycobacterium leprae [30] = assay: Anti-leprotic activity against rifampicin-susceptible Mycobacterium leprae subcultures at 4 weeks assessed as [3H]thymidine uptake per 5 times 10^7 cells at 0.1 mg/L incubated for 24 hrs (reference value: 1.41 +/- 0.20 pmol)

With GENTAMICIN the Activity (Mycobacterium leprae [1]) was 58.5% and the Activity (Mycobacterium leprae [2]) was 60%.

`Nc1ccc(S(=O)(=O)c2ccc(O)cc2)cc1` was tested, and the MIC [3] was 12 µg/mL (≈ 48.1 µM), the MIC [4] was 2010 µg/mL (≈ 8050 µM) and the Time (Mycobacterium leprae [5]) was under 10 days.

In the case of `CO[C@H]1/C=C/O[C@@]2(C)Oc3c(C)c(O)c4c(O)c(c(/C=N/N5CCN(C)CC5)c(O)c4c3C2=O)NC(=O)/C(C)=C\C=C\[C@H](C)[C@H](O)[C@@H](C)[C@@H](O)[C@@H](C)[C@H](OC(C)=O)[C@@H]1C` [RIFAMPIN], the Activity (Mycobacterium leprae [6]) is reported as 0 pmol, the Activity (Mycobacterium leprae [7]) is reported as 0 pmol and the Activity (Mycobacterium leprae [8]) is reported as 0 pmol. For the same molecule, the Activity (Mycobacterium leprae [9]) was 0.7 pmol, the Activity (Mycobacterium leprae [10]) was 0 pmol and the inhibition at 2 µM (Mycobacterium leprae [11]) was 86%. The Activity (Mycobacterium leprae [12]) was 0 pg, the MIC [13] was 2 µg/mL (≈ 2.43 µM) and the Activity (Mycobacterium leprae [14]) was 0 pg. The Activity (Mycobacterium leprae [15]) was 0 pg, the Activity (Mycobacterium leprae [16]) was 0 pg and the MIC [17] was 25 µg/mL (≈ 30.4 µM). The Activity (Mycobacterium leprae [18]) was 0.73 pmol.

With `CCn1cc(C(=O)N/N=C\c2ccc(C)cc2)c(=O)c2cc(F)c(N3CCN(C)CC3)cc21` the Activity [19] was over 30% and the MIC [20] was 42.5 µM (≈ 19.1 µg/mL).

In the case of `NNC(=O)c1ccncc1` [ISONIAZID], the inhibition at 20 µM (Mycobacterium leprae [21]) is reported as 29% and the MIC [13] is reported as 0.1 to 0.4 µg/mL (≈ 0.729 to 2.92 µM).

With `CN(C)C(=S)Sc1c([N+](=O)[O-])cc([N+](=O)[O-])nc1C#N` the Activity (Mycobacterium leprae [22]) was 1.83 ×10⁵ No_unit and the Activity (Mycobacterium leprae [23]) was 2.13 ×10⁵ No_unit.

In the case of `CC(C)/N=c1\cc2n(-c3ccc(Cl)cc3)c3ccccc3nc-2cc1Nc1ccc(Cl)cc1` [CLOFAZIMINE], the inhibition at 2 µM (Mycobacterium leprae [11]) is reported as 94% and the inhibition at 0.2 µM (Mycobacterium leprae [24]) is reported as 70%.

For `C[C@@H](O)[C@H]1C(=O)N2C(C(=O)O)=C(SCCNC=N)O[C@H]12`, the “diameter of the inhibition zone (DIZ)” value (Escherichia coli) was 31 mm and the “diameter of the inhibition zone (DIZ)” value (Staphylococcus aureus) was 28 mm.

`CCn1cc(C(=O)N/N=C\c2cc(OC)c(OC)c(OC)c2)c(=O)c2cc(F)c(N3CCN(C)CC3)cc21` gave an Activity [19] of over 30% and an MIC [20] of 81.2 µM (≈ 42.7 µg/mL).

`CCn1cc(C(=O)N/N=C\c2cccc(O)c2)c(=O)c2cc(F)c(N3CCN(C)CC3)cc21` was tested, and the Activity [19] was over 30% and the MIC [20] was 27.2 µM (≈ 12.3 µg/mL).

Work on `CCN(CC)CCC/N=c1/cc2n(-c3ccc(Cl)cc3)c3ccccc3nc-2cc1Nc1ccc(Cl)cc1` yielded an inhibition at 2 µM (Mycobacterium leprae [11]) of 90% and an inhibition at 0.2 µM (Mycobacterium leprae [24]) of 22%.

With `CCC(C)N1CCN(c2cc(O)c3nc4c5c6c7c(C)c(O)c5c(=O)c(c-4oc3c2)NC(=O)/C(C)=C\C=C\[C@H](C)[C@H](O)[C@@H](C)[C@@H](O)[C@@H](C)[C@H](OC(C)=O)[C@H](C)[C@@H](OC)/C=C/O[C@@](C)(O7)C6=O)CC1` (stereo in doubt; form 1) the Activity (Mycobacterium leprae [6]) was 1.18 pmol, the Activity (Mycobacterium leprae [7]) was 0 pmol and the Activity (Mycobacterium leprae [8]) was 0 pmol. It also gave an Activity (Mycobacterium leprae [9]) of 0.76 pmol, an Activity (Mycobacterium leprae [25]) of 335 pg and an Activity (Mycobacterium leprae [26]) of 233 pg. It also gave an Activity (Mycobacterium leprae [27]) of 235 pg, an Activity (Mycobacterium leprae [10]) of 0 pmol and an Activity (Mycobacterium leprae [12]) of 0 pg. The Activity (Mycobacterium leprae [14]) was 0 pg, the Activity (Mycobacterium leprae [15]) was 0 pg and the Activity (Mycobacterium leprae [28]) was 279 pg. It also gave an Activity (Mycobacterium leprae [16]) of 0 pg, an Activity (Mycobacterium leprae [29]) of 0.92 pmol and an Activity (Mycobacterium leprae [18]) of 0.84 pmol. The Activity (Mycobacterium leprae [30]) was 0 pmol.

Reference: ChEMBL document CHEMBL4613212, “Insights of synthetic analogues of anti-leprosy agents” (Bioorg Med Chem, 2019)
